Experiments:
[1] = target: T1, Calcium/calmodulin-dependent protein kinase type II subunit alpha (Rattus norvegicus, UniProt P11275); experiment: Displacement of [3H]NCS-382 from CaMK2alpha in rat brain cerebral cortex membrane homogenates assessed as inhibition constant measured after 60 mins by TopCount scintillation counting method; type: cell membranes
[2] = target: Calcium/calmodulin-dependent protein kinase type II subunit alpha (Rattus norvegicus) (UniProt P11275); experiment: Inhibition of [3H]NCS-382 binding to CaMK2alpha in rat brain cerebral cortex membrane homogenates at 100 uM measured after 60 mins by TopCount scintillation counting method relative to control; type: cell membranes
Calcium/calmodulin-dependent protein kinase type II subunit alpha (Rattus norvegicus), sequence (P11275 whole entry): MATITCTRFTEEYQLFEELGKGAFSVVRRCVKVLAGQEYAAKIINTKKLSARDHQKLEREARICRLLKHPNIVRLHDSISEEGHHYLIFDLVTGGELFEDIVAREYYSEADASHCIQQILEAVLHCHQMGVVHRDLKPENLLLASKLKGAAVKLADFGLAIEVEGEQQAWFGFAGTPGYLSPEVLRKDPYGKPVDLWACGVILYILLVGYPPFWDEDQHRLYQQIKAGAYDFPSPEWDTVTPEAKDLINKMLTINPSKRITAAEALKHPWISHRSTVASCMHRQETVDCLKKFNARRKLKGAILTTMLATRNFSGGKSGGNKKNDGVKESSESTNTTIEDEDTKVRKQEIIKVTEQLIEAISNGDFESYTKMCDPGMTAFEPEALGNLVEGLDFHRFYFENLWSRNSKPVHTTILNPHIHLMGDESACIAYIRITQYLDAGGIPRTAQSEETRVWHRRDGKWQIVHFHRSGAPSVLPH

[3] = target: T1, Calcium/calmodulin-dependent protein kinase type II subunit alpha; experiment: Displacement of [3H]HOCPCA from CaMK2alpha in rat brain cerebral cortex membrane homogenates assessed as inhibition constant measured after 60 mins by TopCount scintillation counting method; type: cell membranes
[4] = Plasma concentration in C57BL/6J mouse at 10 mg/kg , po measured after 30 mins by UPLC based tandem mass spectrometry analysis; type: ADME, organism-based
[5] = Chemical stability of compound in PBS buffer at pH 7.4 assessed as cyclized intermediate formation at 25 to 37 degreeC incubated for 7 days by HPLC based LC-MS analysis; type: physicochemical; conditions: pH 7.4, 168 h, time 7 day
[6] = Chemical stability of compound in PBS buffer at pH 7.4 assessed as oxidized intermediate formation at 25 to 37 degreeC incubated for 7 days by HPLC based LC-MS analysis; type: physicochemical; conditions: pH 7.4, 168 h, time 7 day
[7] = Brain concentration in C57BL/6J mouse at 10 mg/kg , po measured after 30 mins by UPLC based tandem mass spectrometry analysis; type: ADME, organism-based; conditions: read-out: Ct
[8] = Ratio of drug concentration in brain to plasma in C57BL/6J mouse at 10 mg/kg , po measured after 30 mins by UPLC based tandem mass spectrometry analysis; type: ADME, organism-based; conditions: read-out: BPR
[9] = target: Calcium/calmodulin-dependent protein kinase type II subunit alpha (Homo sapiens, UniProt Q9UQM7); experiment: Inhibition of [3H]NCS-382 binding to CaMK2alpha (unknown origin)
Calcium/calmodulin-dependent protein kinase type II subunit alpha (Homo sapiens, UniProt Q9UQM7), sequence (Q9UQM7 whole entry): as the sequence (P11275 whole entry) above, with N324S counted along it

MDR1 (P-gp) [10] = experiment: Apparent permeability across apical to basolateral side in dog MDCKII-MDR1 cells at 3 uM measured after 60 to 90 mins by LC-MS/MS analysis; type: ADME, cell-based, Canis lupus familiaris; conditions: MDCK-MDR1, time 60-90 min
[11] = Plasma concentration in C57BL/6J mouse at 5 mg/kg , sc measured after 30 mins by UPLC based tandem mass spectrometry analysis; type: ADME, organism-based
[12] = Chemical stability of compound in PBS buffer at pH 7.4 assessed as half life at 25 degreeC incubated for 7 days by HPLC based LC-MS analysis; type: physicochemical; conditions: time 7 day
[13] = Chemical stability of compound in PBS buffer at pH 7.4 assessed as half life at 37 degreeC incubated for 7 days by HPLC based LC-MS analysis; type: physicochemical; conditions: time 7 day
[14] = Brain concentration in C57BL/6J mouse at 5 mg/kg , sc measured after 30 mins by UPLC based tandem mass spectrometry analysis; type: ADME, organism-based; conditions: read-out: Ct
[15] = Ratio of drug concentration in brain to plasma in C57BL/6J mouse at 5 mg/kg , sc measured after 30 mins by UPLC based tandem mass spectrometry analysis; type: ADME, organism-based; conditions: read-out: BPR
MDR1 (P-gp) [16] = experiment: Apparent permeability across basolateral to apical side in dog MDCKII-MDR1 cells at 3 uM measured after 60 to 90 mins by LC-MS/MS analysis; type: ADME, cell-based, Canis lupus familiaris; conditions: MDCK-MDR1, time 60-90 min
BCRP [17] = experiment: Apparent permeability across apical to basolateral side in dog MDCK-II cells expressing BCRP at 3 uM measured after 60 to 90 mins by LC-MS/MS analysis; type: ADME, cell-based, Canis lupus familiaris; conditions: time 60-90 min
BCRP [18] = experiment: Apparent permeability across basolateral to apical side in dog MDCK-II cells expressing BCRP at 3 uM measured after 60 to 90 mins by LC-MS/MS analysis; type: ADME, cell-based, Canis lupus familiaris; conditions: time 60-90 min
BCRP [19] = experiment: Apparent permeability across apical to basolateral side in dog MDCK-II cells expressing BCRP at 3 uM preincubated with BCRP inhibitor, Ko 143 for 15 to 30 mins followed by compound addition and measured after 60 to 90 mins by LC-MS/MS analysis; type: ADME, cell-based, Canis lupus familiaris; conditions: with Ko 143 (BCRP inhibitor; concentration not stated), time 60-90 min
BCRP [20] = experiment: Apparent permeability across basolateral to apical side in dog MDCK-II cells expressing BCRP at 3 uM preincubated with BCRP inhibitor, Ko 143 for 15 to 30 mins followed by compound addition and measured after 60 to 90 mins by LC-MS/MS analysis; type: ADME, cell-based, Canis lupus familiaris; conditions: with Ko 143 (BCRP inhibitor; concentration not stated), time 60-90 min
MDR1 (P-gp) [21] = experiment: Apparent permeability across apical to basolateral side in dog MDCKII-MDR1 cells at 3 uM preincubated with P-gp inhibitor elacridar for 15 to 30 mins followed by compound addition and measured after 60 to 90 mins by LC-MS/MS analysis; type: ADME, cell-based, Canis lupus familiaris; conditions: MDCK-MDR1, with elacridar (P-gp inhibitor; concentration not stated), time 60-90 min
MDR1 (P-gp) [22] = experiment: Apparent permeability across basolateral to apical side in dog MDCKII-MDR1 cells at 3 uM preincubated with P-gp inhibitor elacridar for 15 to 30 mins followed by compound addition and measured after 60 to 90 mins by LC-MS/MS analysis; type: ADME, cell-based, Canis lupus familiaris; conditions: MDCK-MDR1, with elacridar (P-gp inhibitor; concentration not stated), time 60-90 min
[23] = target: T1, Calcium/calmodulin-dependent protein kinase type II subunit alpha; experiment: Inhibition of [3H]NCS-382 binding to CaMK2alpha in rat cerebrocortical membranes; type: cell membranes, Cerebral cortex, Membrane

T1 sequence (P11275 whole entry): as the sequence (P11275 whole entry) above

For O=C(O)Cc1ccccc1Oc1ccc(O)cc1CC(=O)O, the Ki [1] was 0.83 µM.
In the case of O=c1[nH]c(Cc2cc(O)ccc2Oc2ccccc2Cl)no1, the Ki [1] is reported as 1.2 µM.
In the case of NC(=O)Cc1cc(O)ccc1Oc1ccccc1Cl, the Ki [1] is reported as > 100 µM and the inhibition [2] is reported as < 50%.
Molecule O=C(O)Cc1ccc(O)cc1Oc1ccccc1Cl has a Ki [3] of 0.053 µM, a Ki [1] of 0.027 µM and a concentration at 0.5 h [4] of 29400 ng/mL. The Stability [5] was “Stable”, the Stability [6] was “Stable” and the concentration at 0.5 h [7] was 308 ng/mL. For the same molecule, the Kp at 0.5 h [8] was 0.011.
In the case of O=C(O)/C=C/c1ccc(O)cc1 [COUMARIC ACID], the Ki [9] is reported as > 100 µM.
For O=C(O)Cc1ccc(O)cc1Nc1c(Cl)cccc1Cl, the Papp A→B at 3 µM (MDR1 (P-gp) [10]) was 4.66 ×10⁻⁶ cm/s, the concentration at 0.5 h [11] was 6790 ng/mL and the half-life [12] was 10 h. For the same molecule, the half-life [13] was 24 h, the concentration at 0.5 h [14] was 88 ng/mL and the Kp at 0.5 h [15] was 0.013. It also gave a Papp B→A at 3 µM (MDR1 (P-gp) [16]) of 3.73 ×10⁻⁶ cm/s, a Papp A→B at 3 µM (BCRP [17]) of 1.25 ×10⁻⁶ cm/s and a Papp B→A at 3 µM (BCRP [18]) of 19.1 ×10⁻⁶ cm/s. The Papp A→B at 3 µM (BCRP [19]) was 3.05 ×10⁻⁶ cm/s, the Papp B→A at 3 µM (BCRP [20]) was 4.03 ×10⁻⁶ cm/s and the Papp A→B at 3 µM (MDR1 (P-gp) [21]) was 4.15 ×10⁻⁶ cm/s. It also gave a Papp B→A at 3 µM (MDR1 (P-gp) [22]) of 2.71 ×10⁻⁶ cm/s.
O=C(O)Cc1cccc(O)c1 [3-Hydroxyphenylacetate] showed an IC50 [23] of 0.13 µM and a Ki [23] of 0.126 µM.
With O=C1Cc2cc(O)ccc2N1c1c(Cl)cccc1Cl the Ki [1] was > 100 µM and the inhibition [2] was < 50%.
Oc1ccc(Oc2ccccc2Cl)c(-c2nnn[nH]2)c1 gave a Ki [3] of 40 µM and a Ki [1] of 25 µM.
In the case of O=C(O)Cc1ccc(O)cc1Oc1c(Cl)cccc1Cl, the Ki [1] is reported as 0.031 µM.
Work on O=C(O)CCCO [OXYBATE] yielded a Ki [9] of 4.3 µM.
Work on Oc1ccc(Oc2ccccc2Cl)c(Cc2nnn[nH]2)c1 yielded a Ki [3] of 0.094 µM, a Ki [1] of 0.07 µM and a concentration at 0.5 h [4] of 1970 ng/mL. The concentration at 0.5 h [7] was 22 ng/mL and the Kp at 0.5 h [8] was 0.012.
With O=C(O)Cc1ccccc1O the IC50 [23] was 2.1 µM and the Ki [23] was 2 µM.
With O=C(O)Cc1ccc(O)cc1Cc1ccccc1 the Ki [1] was 0.5 µM.
For O=c1[nH]nc(Cc2cc(O)ccc2Oc2ccccc2Cl)[nH]1, the Ki [1] was 0.42 µM.
O=C(O)Cc1ccccc1Nc1c(Cl)cccc1Cl [DICLOFENAC] showed a Ki [1] of 5.1 µM.
For O=C(O)/C=C/c1ccccc1 [CINNAMIC ACID], the Ki [9] was > 100 µM.
With O=C(O)Cc1ccc(O)cc1Sc1ccccc1 the Ki [1] was 0.077 µM.
Molecule O=C(O)Cc1ccc(O)cc1 has a Ki [9] of 2.2 µM.
O=C(O)Cc1ccc(O)cc1Oc1ccccc1 gave a Ki [1] of 0.047 µM.
Oc1ccc(Oc2ccccc2Cl)c(Cc2cc(O)no2)c1 showed a Ki [1] of 20 µM.
In the case of O=C(O)Cc1ccccc1Nc1c(Cl)cc(O)cc1Cl [4'-HYDROXY-DICLOFENAC], the Ki [9] is reported as 2.1 µM.
For O=C(O)Cc1cc(O)ccc1Oc1c(Cl)cccc1Cl, the Ki [1] was 0.07 µM.
O=C(O)Cc1cc(O)ccc1Oc1ccc([N+](=O)[O-])cc1Cl showed a Ki [1] of 0.014 µM.
Molecule O=C(O)C(F)(F)c1cc(O)ccc1Oc1ccccc1Cl has a Ki [1] of 1.2 µM.
O=C(O)Cc1cc(O)ccc1Oc1ccccc1O gave a Ki [1] of 0.033 µM.

Source: ChEMBL document CHEMBL5154898, “Discovery and Optimization of 5-Hydroxy-Diclofenac toward a New Class of Ligands with Nanomolar Affinity for the CaMKIIα Hub Domain” (J Med Chem, 2022)
